Results taken from US6054435A, “6-O-substituted macrolides having antibacterial activity” (priority 1999, dated 2000).
≈ marks a conversion by molar mass, not a printed value.

How the values were obtained:
Test in all cases: in vitro antibacterial activity (MIC), agar dilution
Type in all cases: cell-based
[1] = system: Streptococcus Pneumonia GYR 1171; details: organism code YY; BHI agar, 35-37° C., 20 to 24 hours; unit assumed
Procedure, shortened: (§1)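 Steps: dilute compound serially into BHI agar (twelve plates); spot inocula diluted 1:100, or 1:10 for slow-growing Streptococcus; incubate; inspect visually. MIC recorded as lowest level with no growth, slight haze or sparse isolated colonies.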

[2] = system: Streptococcus bovis A-5169; details: organism code JJ; BHI agar, 35-37° C., 20 to 24 hours; unit assumed
Procedure, shortened: as §1

[3] = system: Staphylococcus aureus CMX 642A; details: organism code DD; BHI agar, 35-37° C., 20 to 24 hours; unit assumed
Procedure, shortened: as §1

Escherichia coli SS = details: organism code RR; BHI agar, 35-37° C., 20 to 24 hours; unit assumed
Procedure, shortened: as §1

[4] = system: Streptococcus pyogenes PIU 2548; details: organism code NN; BHI agar, 35-37° C., 20 to 24 hours; unit assumed
Procedure, shortened: as §1

[5] = system: Nocardia Asteroides ATCC9970; details: organism code VV; BHI agar, 35-37° C., 20 to 24 hours; unit assumed
Procedure, shortened: as §1

[6] = system: Staphylococcus aureus A5177; details: organism code BB; BHI agar, 35-37° C., 20 to 24 hours; unit assumed
Procedure, shortened: as §1

[7] = system: Streptococcus Pneumonia 5979; details: organism code ZZ; BHI agar, 35-37° C., 20 to 24 hours; unit assumed
Procedure, shortened: as §1

[8] = system: Micrococcus luteus ATCC 4698; details: organism code PP; BHI agar, 35-37° C., 20 to 24 hours; unit assumed
Procedure, shortened: (§2)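 BHI agar incorporation method; twelve compound concentrations. Streptococcus and other slow growers inoculated at 1:10, other strains at 1:100. Visual MIC read-out versus growth control.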

[9] = system: Staphylococcus aureus A-5278; details: organism code CC; BHI agar, 35-37° C., 20 to 24 hours; unit assumed
Procedure, shortened: as §1

[10] = system: Staphylococcus epidermidis 3519; details: organism code HH; BHI agar, 35-37° C., 20 to 24 hours; unit assumed
Procedure, shortened: as §1

Escherichia coli DC-2 = details: organism code SS; BHI agar, 35-37° C., 20 to 24 hours; unit assumed
Procedure, shortened: as §1

Candida albicans CCH 442 = details: organism code TT; BHI agar, 35-37° C., 20 to 24 hours; unit assumed
Procedure, shortened: as §1

[11] = system: Streptococcus Pneumonia ATCC6303; details: organism code XX; BHI agar, 35-37° C., 20 to 24 hours; unit assumed
Procedure, shortened: as §1

[12] = system: Streptococcus pyogenes 930; details: organism code MM; BHI agar, 35-37° C., 20 to 24 hours; unit assumed
Procedure, shortened: as §1

[13] = system: Enterococcus faecium ATCC 8043; details: organism code II; BHI agar, 35-37° C., 20 to 24 hours; unit assumed
Procedure, shortened: as §1

Escherichia coli JUHL = details: organism code QQ; BHI agar, 35-37° C., 20 to 24 hours; unit assumed
Procedure, shortened: as §1

[14] = system: Staphylococcus aureus CMX 553; details: organism code FF; BHI agar, 35-37° C., 20 to 24 hours; unit assumed
Procedure, shortened: as §1

[15] = system: Streptococcus pyogenes EES61; details: organism code LL; BHI agar, 35-37° C., 20 to 24 hours; unit assumed
Procedure, shortened: as §1

[16] = system: Mycobacterium smegmatis ATCC 114; details: organism code UU; BHI agar, 35-37° C., 20 to 24 hours; unit assumed
Procedure, shortened: as §1

[17] = system: Staphylococcus aureus NCTC10649M; details: organism code EE; BHI agar, 35-37° C., 20 to 24 hours; unit assumed
Procedure, shortened: as §1

[18] = system: Haemophilis Influenzae DILL AMP R; details: organism code WW; BHI agar, 35-37° C., 20 to 24 hours; unit assumed
Procedure, shortened: as §1

[19] = system: Streptococcus agalactiae CMX 508; details: organism code KK; BHI agar, 35-37° C., 20 to 24 hours; unit assumed
Procedure, shortened: as §1

[20] = system: Staphylococcus aureus 1775; details: organism code GG; BHI agar, 35-37° C., 20 to 24 hours; unit assumed
Procedure, shortened: as §1

[21] = system: Streptococcus Pneumonia 5649; details: organism code ZZA; BHI agar, 35-37° C., 20 to 24 hours; unit assumed
Procedure, shortened: as §1

[22] = system: Staphylococcus aureus ATCC 6538P; details: organism code AA; BHI agar, 35-37° C., 20 to 24 hours; unit assumed
Procedure, shortened: as §1

[23] = system: Micrococcus luteus ATCC 9341; details: organism code OO; BHI agar, 35-37° C., 20 to 24 hours; unit assumed
Procedure, shortened: as §2

CC[C@H]1OC(=O)[C@H](C)C(=O)[C@H](C)[C@@H](O[C@@H]2O[C@H](C)C[C@H](N(C)C)[C@H]2O)[C@](C)(OCC#Cc2ccc(-c3ccco3)s2)C[C@@H](C)C(=O)[C@H](C)[C@H]2NC(=O)O[C@@]21C [Example 23] gave an MIC [1] of 0.03 µg/mL (≈ 0.0382 µM), an MIC [2] of 0.01 µg/mL (≈ 0.0127 µM) and an MIC [3] of 0.05 µg/mL (≈ 0.0637 µM). The MIC (Escherichia coli SS) was 0.39 µg/mL (≈ 0.497 µM), the MIC [4] was 0.1 µg/mL (≈ 0.127 µM) and the MIC [5] was 0.02 µg/mL (≈ 0.0255 µM). The MIC [6] was 0.05 µg/mL (≈ 0.0637 µM), the MIC [7] was 8 µg/mL (≈ 10.2 µM) and the MIC [8] was 0.05 µg/mL (≈ 0.0637 µM). It also gave an MIC [9] of over 100 µg/mL, an MIC [10] of 0.05 µg/mL (≈ 0.0637 µM) and an MIC (Escherichia coli DC-2) of 50 µg/mL (≈ 63.7 µM). For the same compound, the MIC (Candida albicans CCH 442) was over 100 µg/mL, the MIC [11] was 0.03 µg/mL (≈ 0.0382 µM) and the MIC [12] was 6.2 µg/mL (≈ 7.9 µM). For the same compound, the MIC [13] was 0.02 µg/mL (≈ 0.0255 µM), the MIC (Escherichia coli JUHL) was 50 µg/mL (≈ 63.7 µM) and the MIC [14] was 0.05 µg/mL (≈ 0.0637 µM). The MIC [15] was 0.1 µg/mL (≈ 0.127 µM), the MIC [16] was 0.78 µg/mL (≈ 0.994 µM) and the MIC [17] was 0.05 µg/mL (≈ 0.0637 µM). The MIC [18] was 2 µg/mL (≈ 2.55 µM), the MIC [19] was at most 0.005 µg/mL and the MIC [20] was over 100 µg/mL. The MIC [21] was 0.25 µg/mL (≈ 0.318 µM), the MIC [22] was 0.05 µg/mL (≈ 0.0637 µM) and the MIC [23] was 0.01 µg/mL (≈ 0.0127 µM).

For CC[C@H]1OC(=O)[C@H](C)C(=O)[C@H](C)[C@@H](O[C@@H]2O[C@H](C)C[C@H](N(C)C)[C@H]2O)[C@](C)(OCC#Cc2ccc(-c3ccccc3)s2)C[C@@H](C)C(=O)[C@H](C)[C@H]2NC(=O)O[C@@]21C [Example 13], the MIC [1] was 0.25 µg/mL (≈ 0.314 µM), the MIC [2] was 0.05 µg/mL (≈ 0.0629 µM) and the MIC [3] was 0.39 µg/mL (≈ 0.491 µM). The MIC (Escherichia coli SS) was 3.1 µg/mL (≈ 3.9 µM), the MIC [4] was 0.39 µg/mL (≈ 0.491 µM) and the MIC [5] was 0.78 µg/mL (≈ 0.981 µM). For the same compound, the MIC [6] was 0.39 µg/mL (≈ 0.491 µM), the MIC [7] was 4 µg/mL (≈ 5.03 µM) and the MIC [8] was 0.2 µg/mL (≈ 0.252 µM). It also gave an MIC [9] of over 100 µg/mL, an MIC [10] of 0.78 µg/mL (≈ 0.981 µM) and an MIC (Escherichia coli DC-2) of over 100 µg/mL. The MIC (Candida albicans CCH 442) was over 100 µg/mL, the MIC [11] was 0.25 µg/mL (≈ 0.314 µM) and the MIC [12] was 100 µg/mL (≈ 126 µM). The MIC [13] was 0.05 µg/mL (≈ 0.0629 µM), the MIC (Escherichia coli JUHL) was over 100 µg/mL and the MIC [14] was 0.39 µg/mL (≈ 0.491 µM). For the same compound, the MIC [15] was 0.02 µg/mL (≈ 0.0252 µM), the MIC [16] was 1.56 µg/mL (≈ 1.96 µM) and the MIC [17] was 0.78 µg/mL (≈ 0.981 µM). For the same compound, the MIC [18] was 32 µg/mL (≈ 40.3 µM), the MIC [19] was 0.1 µg/mL (≈ 0.126 µM) and the MIC [20] was over 100 µg/mL. The MIC [21] was 2 µg/mL (≈ 2.52 µM), the MIC [22] was 0.39 µg/mL (≈ 0.491 µM) and the MIC [23] was 0.05 µg/mL (≈ 0.0629 µM).

CC[C@H]1OC(=O)[C@H](C)C(=O)[C@H](C)[C@@H](O[C@@H]2O[C@H](C)C[C@H](N(C)C)[C@H]2O)[C@](C)(OC/C=C/c2cncc(-c3ncccn3)c2)C[C@@H](C)C(=O)[C@H](C)[C@H]2NC(=O)O[C@@]21C [Example 46] gave an MIC [1] of 0.03 µg/mL (≈ 0.0378 µM), an MIC [2] of 0.01 µg/mL (≈ 0.0126 µM) and an MIC [3] of 0.2 µg/mL (≈ 0.252 µM). It also gave an MIC (Escherichia coli SS) of 0.39 µg/mL (≈ 0.491 µM), an MIC [4] of 0.2 µg/mL (≈ 0.252 µM) and an MIC [5] of 0.05 µg/mL (≈ 0.063 µM). The MIC [6] was 0.2 µg/mL (≈ 0.252 µM), the MIC [7] was 128 µg/mL (≈ 161 µM) and the MIC [8] was 0.2 µg/mL (≈ 0.252 µM). It also gave an MIC [9] of over 100 µg/mL, an MIC [10] of 0.1 µg/mL (≈ 0.126 µM) and an MIC (Escherichia coli DC-2) of 100 µg/mL (≈ 126 µM). The MIC (Candida albicans CCH 442) was over 100 µg/mL, the MIC [11] was 0.03 µg/mL (≈ 0.0378 µM) and the MIC [12] was 12.5 µg/mL (≈ 15.7 µM). For the same compound, the MIC [13] was 0.05 µg/mL (≈ 0.063 µM), the MIC (Escherichia coli JUHL) was 50 µg/mL (≈ 63 µM) and the MIC [14] was 0.2 µg/mL (≈ 0.252 µM). The MIC [15] was 0.02 µg/mL (≈ 0.0252 µM), the MIC [16] was 6.2 µg/mL (≈ 7.81 µM) and the MIC [17] was 0.2 µg/mL (≈ 0.252 µM). It also gave an MIC [18] of 4 µg/mL (≈ 5.04 µM), an MIC [19] of 0.02 µg/mL (≈ 0.0252 µM) and an MIC [20] of over 100 µg/mL. It also gave an MIC [21] of 0.5 µg/mL (≈ 0.63 µM), an MIC [22] of 0.1 µg/mL (≈ 0.126 µM) and an MIC [23] of 0.05 µg/mL (≈ 0.063 µM).
